According to ChEMBL document CHEMBL6177949, “Exploiting Solvent Exposed Salt-Bridge Interactions for the Discovery of Potent Inhibitors of SOS1 Using Free-Energy Perturbation Simulations” (ACS Med Chem Lett, 2025):
Values after ≈ are worked out from the molar mass of the structure shown.

Key:
[1] = Kinetic solubility of the compound in pH 7.4 phosphate buffered saline at 300 uM measured after 2 hrs by LC-MS/MS analysis; format: physicochemical; details: read-out: Kinetic_solubility
NCI-H358 = assay: cells; details: Homo sapiens
Description: Antiproliferative activity against human NCI-H358 cells assessed as reduction in cell viability incubated for 10 days with media refreshed for every 5 days by celltiter-glo assay

[2] = Oral bioavailability in BALB/c mouse at 5 mg/kg administered via gavage by LC-MS/MS analysis; format: ADME, organism-based; details: in vivo
[3] = target: Voltage-gated inwardly rectifying potassium channel KCNH2 (Homo sapiens, UniProt Q12809); assay: Inhibition of human ERG stably transfected in HEK293 cells by manual patch-clamp assay; format: toxicity, cell-based
[4] = Intrinsic clearance in mouse liver microsomes at 1 uM measured after 0.5 to 30 mins in presence of NADPH by LC-MS/MS analysis; format: ADME, Microsome; details: time 0.5-30 min, read-out: CLH
[5] = Intrinsic clearance in human liver microsomes at 1 uM measured after 0.5 to 30 mins in presence of NADPH by LC-MS/MS analysis; format: ADME, Microsome; details: time 0.5-30 min, read-out: CLH
[6] = Volume of distribution at steady state in BALB/c mouse at 1 mg/kg, iv administered as bolus dose by LC-MS/MS analysis; format: ADME, organism-based; details: in vivo, read-out: Vdss
[7] = Unbound clearance in BALB/c mouse at 5 mg/kg, po via gavage or 1 mg/kg, iv administered as bolus dose by LC-MS/MS analysis; format: ADME, organism-based; details: in vivo
[8] = Half life in BALB/c mouse at 1 mg/kg, iv administered as bolus dose by LC-MS/MS analysis; format: ADME, organism-based; details: in vivo
[9] = Lipophilicity, log D of the compound in octanol/phosphate buffer at pH 7.4 measured after 2 hrs by LC-MS/MS based shake flask method; format: physicochemical
[10] = Apparent permeability across apical to basolateral side in MDCKII-MDR1 cells at 10 uM measured after 60 mins by LC-MS/MS analysis; format: ADME, cell-based, Canis lupus familiaris; details: dog, MDCK-MDR1
[11] = Dissociation constant, pKa of compound at 33 uM by UV-vis spectroscopy; format: physicochemical
[12] = target: Son of sevenless homolog 1 (Homo sapiens, UniProt Q07889, G12C); assay: Binding affinity to recombinant human His10-tagged SOS1 (564 to 1049 residues) assessed as inhibition of GST-tagged human KRAS G12C mutant (1 to 169 residues) interaction with SOS1 preincubated for 15 mins followed by KRAS addition and measured after 2 hrs by FRET assay
Chain of Son of sevenless homolog 1 (Q07889 whole entry, looked up, stated change not applied, the tested form may be a part): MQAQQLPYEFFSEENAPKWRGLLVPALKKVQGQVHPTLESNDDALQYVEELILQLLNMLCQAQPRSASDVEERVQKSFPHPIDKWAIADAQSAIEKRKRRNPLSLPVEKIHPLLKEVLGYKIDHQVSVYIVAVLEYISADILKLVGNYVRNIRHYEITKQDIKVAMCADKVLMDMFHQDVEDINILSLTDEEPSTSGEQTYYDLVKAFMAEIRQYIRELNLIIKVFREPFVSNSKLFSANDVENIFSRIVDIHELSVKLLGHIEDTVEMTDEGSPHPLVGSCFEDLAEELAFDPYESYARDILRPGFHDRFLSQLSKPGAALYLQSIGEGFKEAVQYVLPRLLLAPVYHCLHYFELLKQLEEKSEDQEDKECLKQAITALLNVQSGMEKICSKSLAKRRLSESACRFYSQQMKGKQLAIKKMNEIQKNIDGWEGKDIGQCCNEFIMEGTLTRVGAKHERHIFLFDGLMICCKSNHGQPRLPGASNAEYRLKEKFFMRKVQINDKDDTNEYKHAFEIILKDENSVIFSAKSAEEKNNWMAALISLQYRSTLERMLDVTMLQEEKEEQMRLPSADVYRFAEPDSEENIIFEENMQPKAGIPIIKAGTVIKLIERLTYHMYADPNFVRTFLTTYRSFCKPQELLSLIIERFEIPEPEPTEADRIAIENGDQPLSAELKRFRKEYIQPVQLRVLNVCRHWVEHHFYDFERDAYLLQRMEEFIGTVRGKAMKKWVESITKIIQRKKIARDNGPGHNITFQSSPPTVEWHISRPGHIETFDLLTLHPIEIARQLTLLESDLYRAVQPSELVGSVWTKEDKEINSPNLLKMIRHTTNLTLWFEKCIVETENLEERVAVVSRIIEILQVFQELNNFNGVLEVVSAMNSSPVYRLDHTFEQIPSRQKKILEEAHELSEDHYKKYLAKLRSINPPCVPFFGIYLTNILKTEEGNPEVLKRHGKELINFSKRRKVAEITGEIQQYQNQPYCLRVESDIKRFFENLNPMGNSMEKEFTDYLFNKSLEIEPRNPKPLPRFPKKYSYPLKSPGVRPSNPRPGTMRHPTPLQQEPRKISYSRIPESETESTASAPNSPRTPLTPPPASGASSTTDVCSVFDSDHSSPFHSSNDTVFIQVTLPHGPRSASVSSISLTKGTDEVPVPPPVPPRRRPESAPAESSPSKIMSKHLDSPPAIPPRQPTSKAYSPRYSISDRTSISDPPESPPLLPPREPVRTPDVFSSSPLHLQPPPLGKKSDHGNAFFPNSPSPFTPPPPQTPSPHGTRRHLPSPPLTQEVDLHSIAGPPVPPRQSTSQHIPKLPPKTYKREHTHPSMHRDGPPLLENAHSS

Chain of Voltage-gated inwardly rectifying potassium channel KCNH2 (Q12809 whole entry): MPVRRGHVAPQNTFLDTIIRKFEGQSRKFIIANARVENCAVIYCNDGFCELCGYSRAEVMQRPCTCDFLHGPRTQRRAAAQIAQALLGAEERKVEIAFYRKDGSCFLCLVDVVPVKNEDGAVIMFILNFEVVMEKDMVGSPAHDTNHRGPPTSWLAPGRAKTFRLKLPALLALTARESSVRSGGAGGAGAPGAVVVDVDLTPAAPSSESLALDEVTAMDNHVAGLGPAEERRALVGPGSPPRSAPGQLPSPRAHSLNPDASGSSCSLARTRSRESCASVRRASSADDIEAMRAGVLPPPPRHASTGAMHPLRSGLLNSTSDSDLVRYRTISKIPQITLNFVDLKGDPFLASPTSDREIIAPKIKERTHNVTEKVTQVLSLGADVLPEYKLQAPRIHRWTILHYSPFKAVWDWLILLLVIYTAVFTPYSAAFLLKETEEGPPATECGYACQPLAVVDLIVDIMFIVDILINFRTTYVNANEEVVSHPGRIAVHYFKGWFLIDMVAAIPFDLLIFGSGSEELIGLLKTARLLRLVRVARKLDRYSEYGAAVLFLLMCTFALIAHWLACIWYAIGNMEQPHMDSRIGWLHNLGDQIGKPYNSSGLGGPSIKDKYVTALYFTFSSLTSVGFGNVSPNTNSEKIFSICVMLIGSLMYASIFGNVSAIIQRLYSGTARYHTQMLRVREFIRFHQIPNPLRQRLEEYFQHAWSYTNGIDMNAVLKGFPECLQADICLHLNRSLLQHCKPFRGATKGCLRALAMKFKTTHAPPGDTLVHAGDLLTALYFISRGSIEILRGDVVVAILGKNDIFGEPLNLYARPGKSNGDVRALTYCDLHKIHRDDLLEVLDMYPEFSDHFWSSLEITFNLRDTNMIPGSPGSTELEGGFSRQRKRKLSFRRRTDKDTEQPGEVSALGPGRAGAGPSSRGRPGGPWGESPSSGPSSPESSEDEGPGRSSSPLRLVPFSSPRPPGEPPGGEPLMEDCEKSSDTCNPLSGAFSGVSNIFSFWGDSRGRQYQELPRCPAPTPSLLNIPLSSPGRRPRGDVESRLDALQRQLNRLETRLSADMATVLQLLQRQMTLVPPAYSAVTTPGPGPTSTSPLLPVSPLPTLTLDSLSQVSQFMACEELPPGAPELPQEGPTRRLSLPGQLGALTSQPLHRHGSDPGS

pKa at 33 µM [11]	Compound	IC50 (NCI-H358)	CLint scaled at 1 µM [4]	CLint scaled at 1 µM [5]	logD at 2 h [9]	Papp A→B at 1 h, 10 µM [10]	other results
–	C[C@@H](Nc1nc2c(c3cc(=O)n(C4CC4)cc13)CC(N1CC[C@@H](F)C1)CC2)c1cccc(C(F)F)c1F (some centres undefined)	32 nM	143 mL/min/kg	56 mL/min/kg	3.7	0.2 ×10⁻⁶ cm/s	solubility kinetic at 2 h, 300 µM [1]: 90 µM (≈ 46.3 µg/mL); bioavailability [2]: 2%; IC50 [3]: 1100 nM; Vd [6]: 4.6 L/kg; CL free [7]: 816 mL/min/kg; half-life [8]: 4 h
–	Cc1c([C@@H](C)Nc2nc3c(c(=O)n2C)CNCC3)cccc1C(F)(F)F	–	–	–	–	3.2 ×10⁻⁶ cm/s	–
6.1	C[C@@H](Nc1nc2c(c3cc(=O)n(C4CCOCC4)cc13)CC(N1CC(F)(F)C1)CC2)c1cccc(C(F)F)c1F (some centres undefined)	–	–	–	–	–	–
–	Cc1c(C#N)cccc1[C@@H](C)Nc1nnc(C)c2cnc(N3CCOCC3)cc12 [MRTX-0902]	22 nM	–	–	–	–	–
8.8	Cc1c([C@@H](C)Nc2nc3c(c4cc(=O)n(C5CCOCC5)cc24)CNCC3)cccc1C(F)(F)F	–	46 mL/min/kg	11 mL/min/kg	2.9	0.2 ×10⁻⁶ cm/s	–
–	C[C@@H](Nc1nc2c(c3cc(=O)n(C4CC4)cc13)CC(N1CCC1)CC2)c1cccc(C(F)F)c1F (some centres undefined)	19 nM	49 mL/min/kg	9 mL/min/kg	2.6	0.3 ×10⁻⁶ cm/s	solubility kinetic at 2 h, 300 µM [1]: 226 µM (≈ 109 µg/mL); bioavailability [2]: 2%; IC50 [3]: 1100 nM; Vd [6]: 4.1 L/kg; CL free [7]: 353 mL/min/kg; half-life [8]: 1.1 h
9.3	C[C@@H](Nc1nc2c(c3cc(=O)n(C4CCOCC4)cc13)CC(N1CCC1)CC2)c1cccc(C(F)F)c1F (some centres undefined)	–	–	–	–	–	–
–	Oc1cc(-c2ncc3c(N4C[C@H]5CC[C@@H](C4)N5)nc(OCC45CCCN4CCC5)nc3c2F)c2ccccc2c1	–	–	–	–	–	IC50 [12]: < 2 nM
–	COc1cc2nc(C)nc(N[C@H](C)c3cc(N)cc(C(F)(F)F)c3)c2cc1O[C@H]1CCOC1	32 nM	–	–	–	–	–
7.8	COC1CN(C2CCc3nc(N[C@H](C)c4cccc(C(F)F)c4F)c4cn(C5CCOCC5)c(=O)cc4c3C2)C1 (some centres undefined)	–	–	–	–	–	–
